Residues, ends and D or L forms follow the SMILES beside them. *: point of attachment. For = O=C*

The source of these data is patent US7189519B2, “Bead-based detection of ligand-GPCR-G protein complexes” (STC.UNM, priority 1998, dated 2007).

This experiment has as its system FPR-GFP with Gαβγ on DCNi beads (LR^FG ternary complex). In words: Standard LRG assembly assay with FPR-GFP (R^F) on G protein beads, flow cytometry. The class given is biochemical, human. The settings on record: for EC50: standard assembly with 30 nM R^F, three experiments, read-out: EC50 for LRG formation. As to the method:
Standard LRG Assembly Assay. […] Each mixture was mixed by pipetting to ensure a uniform starting suspension of the beads in 96 V-well plates (Costar), and then mixed at low speed on a vortex mixer at 7° for two hours. The 10 μl assays were individually brought to 200 μl with 0.1% dodecyl maltoside in buffer A in 12×75 mm tubes for flow cytometric measurement of fluorescence of the beads. LRG assembly was defined as the difference between fluorescence without GTPγS and that with GTPγS. All determinations were done in duplicate.

As for `CSCC[C@H](NC=O)C(=O)N[C@@H](CC(C)C)C(=O)N[C@@H](Cc1ccccc1)C(=O)N[C@@H](Cc1ccccc1)C(=O)O` [fMLFF] (For-MLFF-OH; C-terminus assumed), the EC50 came to 27 nM.

With `CSCC[C@H](NC=O)C(=O)N[C@@H](CC(C)C)C(=O)O` [fML] (For-Met-Leu-OH; C-terminus assumed), the EC50 amounted to 5300 nM. In addition, the “calculated maximal assembly, of the LRG assembly of the longer peptides” value (near the limit of solubility of fML) is on record as 78+/−3%.
